# Measured values taken from ChEMBL document CHEMBL1157539, “Thousands of chemical starting points for antimalarial lead identification” (Nature, 2010).
# System: Plasmodium falciparum
# Assay: GSK_TCMDC: Inhibition of Plasmodium falciparum 3D7 in whole erythrocytes, using parasite LDH activity as an index of growth.
# Format: functional, organism-based
# Conditions: Plasmodium falciparum, 3D7
row,SMILES,XC50
1,O=C(/C=C/c1cc([N+](=O)[O-])ccc1Cl)N1CCC(CCN2CCC(c3c[nH]c4ccccc34)CC2)CC1,742 nM
2,CCN1CCC(N(Cc2ccc(-c3ccc(C(F)(F)F)cc3)cc2)C(=O)Cn2c(CCc3cccc(F)c3F)cc(=O)c3c2CCCC3)CC1,755 nM
3,CC(C)N1CCC(N(Cc2ccc(-c3ccc(C(F)(F)F)cc3)cc2)C(=O)Cn2c(SCc3cccc(F)c3F)cc(=O)c3ccccc32)CC1,817 nM
4,CCN1CCC(N(CCCCCCc2ccc(C(F)(F)F)cc2)C(=O)Cn2c(CCc3cccc(F)c3F)cc(=O)c3ccccc32)CC1,927 nM
5,O=[N+]([O-])c1ccc2nccnc2c1,1070 nM
6,Cc1cc(Nc2ccc3ccccc3c2)n2ncnc2n1,173 nM
7,COc1ccc2nc(C)cc(Nc3ccc(Oc4ccc5ccccc5c4)c(Cl)c3)c2c1,691 nM
8,CN1CCC(N2CCN(Cc3cccc(-c4cccc(-c5nc6ccccc6[nH]5)c4)c3)CC2)CC1,194 nM
9,COc1ccc(CCNc2nc(NCc3ccccc3)c3cc(OC)c(OC)cc3n2)cc1OC,326 nM
10,COc1ccc(-c2cncc3ccc(C(=O)NCCCn4ccnc4)nc23)cc1,748 nM
11,O=C(NCCCCN1CC=C(c2ccc3c(c2OCc2ccccc2)CCCC3)CC1)c1ccc(-c2ccc(C(F)(F)F)cc2)cc1,296 nM
12,Cn1nccc1C(=O)NCCNCc1ccc(-c2ccc(-c3nc4cc(C(F)(F)F)ccc4[nH]3)cc2)cc1,145 nM
13,COc1c(CCNCCCCNCCc2cc(Cl)c3ccccc3c2OC)cc(Cl)c2ccccc12,168 nM
14,O=C(Nc1ccc(F)c(F)c1)c1ccc(CN2CCCN(Cc3cccc(F)c3)CC2)cc1,1120 nM
15,COc1cc(Cc2cnc(N)nc2N)ccc1Oc1ccc(N)cc1,868 nM
16,CN1CCN(CC(O)CNC(=O)Nc2ccc(Cl)cc2)CC1 (configuration not stated),230 nM
17,Cc1cc(C=C(P(=O)(OC(C)C)OC(C)C)P(=O)(OC(C)C)OC(C)C)c2ccccc2c1O,1080 nM
18,O=C(NCCNc1ccnc(Nc2ccc(F)cc2)n1)Nc1ccccc1F,762 nM
19,CCNc1cc(C(=O)N[C@@H](Cc2ccccc2)[C@H](O)CNCCC(C)c2ccccc2)cc(N2CCCC2=O)c1 (some centres not stated),511 nM
20,CSc1cccc(NC(=O)Nc2ccc(I)c(OCCN(C)C)c2)c1,691 nM
21,O=c1cc(NCCC(CNCCc2ccccc2)NCc2cc(Br)cc(Br)c2)[nH]c2ccccc12 (configuration not stated),514 nM
22,Cc1cc(-c2cccc(CNC3CCN(C)CC3)c2)ccc1S(=O)(=O)NCCN1CCCC1,977 nM
23,N=c1n(Cc2ccccc2)c2ccccc2n1CC(O)c1ccc(Cl)c(Cl)c1 (configuration not stated),828 nM
24,Cc1ccc2sc(N3CCN(C(=O)c4ccc([N+](=O)[O-])o4)CC3)nc2c1C,945 nM
25,C=CCN1C(=O)CN(S(=O)(=O)c2ccc(-n3nc(C)cc3C)cc2)C1=S,941 nM

row,SMILES,XC50
1,Fc1ccc2[nH]c(-c3ccc(-c4ccc(CNCC5CCCO5)cc4)s3)nc2c1 (configuration not stated),599 nM
2,CCn1c(-c2nonc2N)nc2cnc(Oc3cccc(NC(=O)c4ccc(OCCN(C(C)C)C(C)C)cc4)c3)cc21,780 nM
3,CCCc1cc(OC)c(C[C@@H]2c3cc(O)c(Cl)cc3CCN2C)cc1OC,722 nM
4,O=C(COc1ccc(C(=O)c2ccccc2)cc1)Nc1nccs1,887 nM
5,COc1ccc2nccc([C@@H](O)CN3CCC(NC(=O)C(c4cc5ccccc5o4)N4CCN(C(c5ccccc5)c5ccccc5)CC4)CC3)c2c1 (some centres not stated),149 nM
6,CN(Cc1ccccc1)C(=O)CCNS(=O)(=O)c1cc(Br)cnc1N,1130 nM
7,COc1ccccc1CCNc1ncc(F)c(N[C@@H](Cc2ccccc2)C(=O)NCCc2ccccc2)n1,965 nM
8,COc1ccc(-c2ccc(NC(=O)c3ccc(Cl)cc3)cc2)cc1CN1CCN(C)CC1,823 nM
9,COc1ccc(Nc2ncc3c(-c4cccc(NC(=O)Cc5ccc(F)cc5)c4)c[nH]c3n2)cc1OC,594 nM
10,O=C(NC1CCC(CCN2Cc3ccc(Br)cc3C2)CC1)c1cccc(-c2cccnc2)c1 (configuration not stated),927 nM
11,CCOc1c(CNCCCNc2nc3ccccc3[nH]2)cc(Br)cc1OC,557 nM
12,CCCC(=O)c1c(O)c2ccccc2oc1=O,265 nM
13,O=C(NCCCCN1CCC(c2ccc3c(c2O)CCCC3)CC1)c1ccc(-c2ccc(Cl)cc2)cc1,754 nM
14,COc1ccc(-c2nc3ccc(C)nc3nc2-c2ccc(OC)cc2)cc1,1110 nM
15,O=C(CN1CCC2(CCC1=O)CC(=O)c1ccccc1O2)NCCN1CCOCC1 (configuration not stated),221 nM
16,O=[N+]([O-])c1ccc(C=NNc2nc3ccccc3[nH]2)cc1,283 nM
17,CCOc1c(Br)cc(Cl)cc1CNCCCNc1nc2ccccc2[nH]1,689 nM
18,CC(=NNC(=N)N)c1ccc2c(c1)Cc1ccccc1-2,1410 nM
19,O=C(NCc1ccccc1)Nc1cccc(-c2cccc(-c3nc4cc(C(F)(F)F)ccc4[nH]3)c2)c1,264 nM
20,N=C(N)Nc1ccc(CCc2ccc(NC(=N)N)cc2)cc1,289 nM
21,CCCNC(=O)Nc1ccc(N(C)c2ccnc(NC3CC3)n2)cc1,618 nM
22,Cc1ccc2c(=NN=Cc3cccc(Cl)c3)cc(C)[nH]c2c1,949 nM
23,CN1CCN(Cc2cc3cc(NC(=O)/C=C/c4ccc(Cl)cc4)ccc3s2)CC1,767 nM
24,O=C(O)CCc1ccc(-c2c[nH]c3ncc(-c4ccc5ncccc5c4)cc23)cc1,302 nM
25,COc1cc2nc(C)nc(Nc3ccc4c(ccn4Cc4ccccc4)c3)c2cc1OC,556 nM

row,SMILES,XC50
1,COc1ccc(C(=O)N[C@@H](CC(C)C)C(=O)N[C@H](/C=N/NC(=O)c2ccccc2)CCc2ccccc2)cc1OCCN1CCOCC1,173 nM
2,Cn1ccnc1S(=O)(=O)CCNCc1ccc(-c2ccc3ncnc(Nc4ccc(OCc5cccc(F)c5)c(Cl)c4)c3c2)o1,701 nM
3,Cc1ccc(-c2nc(Nc3ccncc3)c3ccccc3n2)s1,830 nM
4,N=C(NCCCCCCCCNC(=N)Nc1ccc(Cl)cc1)Nc1ccc(Cl)cc1,590 nM
5,O=C(NC1CC1)c1ccc(N2CCCC(COc3ccc4c(c3)CCCC4)C2)nc1 (configuration not stated),1080 nM
6,CCOC(=O)/C(=N\OC(C)(C)C(=O)NCc1ccc(O)c(O)c1)c1csc(NC(c2ccccc2)(c2ccccc2)c2ccccc2)n1,170 nM
7,COc1ccc(NC(=O)Nc2cccc(-c3ccncc3)c2)cc1N1CCN(C)CC1,552 nM
8,O=C(Cn1c(=O)oc2ccccc21)N1CCC(n2c(=O)n(CCCN3CCOCC3)c3ccccc32)CC1,774 nM
9,N#Cc1ccc2c(c1)CCN(CCC1CCC(NC(=O)/C=C/c3ccc4[nH]ccc4c3)CC1)CC2 (configuration not stated),1060 nM
10,Cc1[nH]c(C)c(-c2ccc(OCc3cccc(C(F)(F)F)c3)nc2)c(=O)c1Br,40.3 nM
11,O=C(c1cccc(-c2cccc(-c3nc4ccccc4[nH]3)c2)c1)N1CCCCC1CN1CCC(O)C1 (configuration not stated),728 nM
12,Cc1cc(-c2ccc3c(c2)CCN(CCC2CCC(NC(=O)/C=C/c4ccccc4F)CC2)CC3)on1 (configuration not stated),811 nM
13,CCC(CCON1C(N)=NC(N)=NC1(C)C)c1ccc(Cl)c(Cl)c1 (configuration not stated),3.2 nM
14,CCN(CC)CC(O)CNc1c2ccc([N+](=O)[O-])cc2nc2cc(OC)c(OC)cc12 (configuration not stated),266 nM
15,COc1ccc(S(=O)(=O)NCCC2CCN(CCCCCNC(=O)C=Cc3ccc(Cl)c(Cl)c3)CC2)cc1,957 nM
16,O=C(NCC1CCCCC1)c1cc(=O)c2ccccc2o1,320 nM
17,c1cc(-c2ccc(CNCc3ccc(-c4csnn4)cc3)cc2)cc(-c2nc3ccccc3[nH]2)c1,158 nM
18,O=C(Nc1ccc(OC2CCN(Cc3ccco3)CC2)c(Cl)c1)c1ccc2ncccc2c1,949 nM
19,O=C(c1ccc(OCCn2ccnc2)cc1)N1CCC(c2ccc(Br)cc2)C1 (configuration not stated),116 nM
20,CC1(C)NC(N)=NC(=N)N1OCCCOc1cc(Cl)cc(Cl)c1,3.2 nM
21,CCOC(=O)c1ccc(N=C2SC(=Cc3cc(Br)ccc3O)C(=O)N2C)cc1,998 nM
22,c1ccc(CCNc2ccnc(Nc3ccc4cn[nH]c4c3)n2)cc1,467 nM
23,O=C(NCC1CC1)C1Cc2c([nH]c3ccc(Br)cc23)C2(CCN(CCc3ccccc3)CC2)N1 (configuration not stated),908 nM
24,Cc1c2c(nn1-c1ccccc1)C(c1ccccc1)N(c1ccccc1)C2=O (configuration not stated),147 nM
25,CNCCNCc1ccc(-c2cccc(-c3nc4cc(F)ccc4[nH]3)c2)cc1,1130 nM

row,SMILES,XC50
1,CCOC(=O)/C(=N\OC(C(=O)OC(C)(C)C)c1ccccc1)c1csc(NC(c2ccccc2)(c2ccccc2)c2ccccc2)n1 (configuration not stated),1110 nM
2,CCc1cccc(C)c1-n1nc(-c2cc(C(C)(C)C)oc2C)cc1N,658 nM
3,c1ccc2c(NCCCCCCCNc3ccnc4ccccc34)ccnc2c1,169 nM
4,CCOc1cc(C)ccc1C1CCN(CCCCNC(=O)c2ccc(-c3ccc(C(F)(F)F)cn3)cc2)CC1,787 nM
5,O=C(CSc1nc2ccc([N+](=O)[O-])cc2s1)Nc1ccccc1-c1ccccc1,1170 nM
6,CCCN(C(=O)c1ccccc1C)c1nnc(-c2cccc(C)c2)s1,896 nM
7,Cc1cc(NC2CCN(CC3CCCCC3)C2)nc(Nc2ccc(Cl)cc2)n1 (configuration not stated),404 nM
8,O=C(Nc1cccc(-c2nc3ccccc3[nH]2)c1)c1ccc(-c2cccc([N+](=O)[O-])c2)o1,151 nM
9,CC(C)(C)CCN1CCC(NC(=O)c2ccc(-c3cccc(C(F)(F)F)c3)s2)CC1,755 nM
10,CCc1cn2c3c(cc(C(=O)N[C@@H](Cc4cccc(Cl)c4)[C@H](O)CNC4CCCCC4)cc13)N(C)S(=O)(=O)CC2,57.1 nM
11,CCc1c(C)nc2nc(Cc3cccc(F)c3)nn2c1N1CCN(c2ccccn2)CC1,750 nM
12,Cc1nc(NCc2ccccc2)cc(NCC(O)c2ccc(O)cc2)n1 (configuration not stated),1230 nM
13,CCOC(=O)c1cccc(NC(=N)Nc2nc(C)cc(NCCc3ccccc3)n2)c1,684 nM
14,CC(C)(C)c1ccc(CN2CCCCC(NC(=O)c3cc(-c4cccc(F)c4)cs3)C2)cc1 (configuration not stated),783 nM
15,CC(C)C[C@H](NC(=O)c1cccc(F)c1)C(=O)N[C@H](/C=N/NC(=O)c1ccccc1)CCc1ccccc1,715 nM
16,O=C(Nc1cccc(C(F)(F)F)c1)N1CCOC(CCN2CCC(c3ccccc3)CC2)(c2ccc(Cl)c(Cl)c2)C1 (configuration not stated),1110 nM
17,Cc1cc(C(=O)Nc2ccc3c(c2)CCN3C2CCN(Cc3ccc(F)cc3Cl)C2)no1 (configuration not stated),189 nM
18,CN1CCCc2ccc(NC(=O)c3ccc(-c4cc(C(F)(F)F)nn4C)s3)cc2C1,880 nM
19,OC[C@H]1CCCN1CC#Cc1cc2c(Nc3ccc(OCc4cccc(F)c4)c(Cl)c3)ncnc2s1,1210 nM
20,COc1cc2nc(N3CCC(CNC(=O)c4cccc5cccnc45)CC3)nc(N)c2cc1OC,1700 nM
21,CN(C)CCCOc1ccc(CCCCc2ccc(Cl)cc2C(=O)c2ccccc2)cc1,1030 nM
22,c1cncc(CCNCc2ccc(-c3cccc(-c4nc5ccccc5[nH]4)c3)cc2)c1,164 nM
